Laboratory results as given in patent publication US20250195672A1, “DENDRIMER COMPOSITIONS FOR TARGETED DELIVERY OF THERAPEUTICS TO NEURONS” (priority 2022, published 2025).
Entries after “also recorded” stand apart in the source; their conditions may differ.

Test system: YFP-expressing cortical neurons
Assay: GD2-Cy5 uptake in ex vivo cortical brain sections: neuronal activity and glucose transporter blockade
Type: cell-based, mouse
Settings: 30 minutes pre-treatment in Mg2+ free ACSF: cytochalasin B 5 μM, glutor 10 μM, phlorizin 10 μM, GD2-Cy5 10 μg/ml
Description: FIG. 9A is scheme of the experiment in which 300 μm cortical brain sections were pre-treated for 30 minutes with control ACSF (Mg2+ free, increases neuronal firing) or ACSF containing Mg2+/NMDG (suppressed neuronal activity) or control ACSF with either cytochalasin B (5 μM) or glutor ([…]). After pre-treatment, brain sections were incubated with GD2-Cy5 (10 μg/ml) for 30 minutes followed by 10% formalin fixation and confocal imaging.
300 μm cortical brain sections were pre-treated for 30 minutes with Mg2+ free artificial cerebrospinal fluid (ACSF) (increases neuronal firing) or ACSF containing Mg2+/NMDG (suppressed neuronal activity) or Mg2+ free ACSF with cytochalasin B (5 μM) or glutor (10 μM) or phlorizin (10 μM). After pre-treatment, brain sections were incubated with GD2-Cy5 (10 μg/ml) for 30 minutes followed by formalin fixation and confocal imaging. Mean fluorescence intensities for GD-Cy5 were evaluated in YFP-expressing cortical neurons. Confocal images of fixed sections showing DAPI (nucleus), YFP (neurons) and GD2-Cy5 with different treatments were taken and analyzed.
CP rabbit kits or Thy1-YFP mice were deeply anesthetized with isoflurane and decapitated. Brains were removed and transferred to oxygenated (95% O2/5% CO2), ice-cold N-Methyl-D-glucamin (NMDG)-based buffer (Buffer1, in mM: 92 NMDG, 2.5 KCl, 10 MgSO4, 0.5 CaCl2, 1.2 NaH2PO4, 30 NaHCO3, 25 glucose, 20 HEPES, 5 sodium ascorbate, 3 sodium pyruvate, 2 thiourea; pH 7.4). Coronal brain slices ([…]) were then obtained using a vibratome (VT1200, Leica). Slices were first incubated in the NMDG-based solution at 34° C. for 10 minutes, then transferred and maintained in the same solution for an hour at room temperature before starting subsequent experiment. Dendrimer-Cy5 was added in 5 ml of Buffer2 (in mM: 125 NaCl, 2.5 KCl, 1 MgCl2, 2 CaCl2, 1.25 NaH2PO4, 26 NaHCO3, 20 glucose; pH 7.4) containing brain slices and incubated for 30 min while oxygenation at room temperature. […]

Compound | Effect of transporter blocker pre-treatment on GD2 uptake by neurons
O=C(CCc1ccc(O)cc1)c1c(O)cc(O)cc1O[C@@H]1O[C@H](CO)[C@@H](O)[C@H](O)[C@H]1O [Phlorizin] | diminished GD2 uptake
C=C1[C@@H](C)[C@H]2[C@H](Cc3ccccc3)NC(=O)[C@]23OC(=O)/C=C/[C@H](O)CCC[C@@H](C)C/C=C/[C@H]3[C@@H]1O [cytochalasin B] | diminished GD2 uptake; also recorded: significantly decreased
C[C@@]1(C(=O)NCc2cccnc2)Cn2nc(-c3ccccc3)cc2C(=O)N1Cc1ccc(N2CCOCC2)cc1 [glutor] | diminished GD2 uptake; also recorded: significantly decreased
